Assay results reported in PubChem BioAssay (NCI).
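Interpolation was linear, between the two tested concentrations surrounding the appropriate level; five concentrations were tested over 48 hours in 96-well plates. TGI is the concentration that stops growth completely.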

Experiments:
Test in all cases: NCI-60 cell line screen, 48 h
786-0 renal = system: 786-0 renal
A549 NSCLC = system: A549 NSCLC
ACHN renal = system: ACHN renal
BT-549 breast = system: BT-549 breast
CAKI-1 renal = system: CAKI-1 renal
CCRF-CEM leukemia = system: CCRF-CEM leukemia
COLO 205 colon = system: COLO 205 colon
EKVX NSCLC = system: EKVX NSCLC
HCC-2998 colon = system: HCC-2998 colon
HCT-116 colon = system: HCT-116 colon
HCT-15 colon = system: HCT-15 colon
HOP-62 NSCLC = system: HOP-62 NSCLC
HS 578T breast = system: HS 578T breast
HT29 colon = system: HT29 colon
IGROV1 ovarian = system: IGROV1 ovarian
K-562 leukemia = system: K-562 leukemia
KM12 colon = system: KM12 colon
LOX IMVI melanoma = system: LOX IMVI melanoma
M14 melanoma = system: M14 melanoma
MALME-3M melanoma = system: MALME-3M melanoma
MCF7 breast = system: MCF7 breast
MDA-MB-231 breast = system: MDA-MB-231 breast
MDA-MB-435 = system: MDA-MB-435
MDA-N = system: MDA-N
MOLT-4 leukemia = system: MOLT-4 leukemia
NCI-H226 lung = system: NCI-H226 lung
NCI-H23 lung = system: NCI-H23 lung
NCI-H460 lung = system: NCI-H460 lung
NCI-H522 lung = system: NCI-H522 lung
NCI/ADR-RES ovarian = system: NCI/ADR-RES ovarian
OVCAR-3 ovarian = system: OVCAR-3 ovarian
OVCAR-4 ovarian = system: OVCAR-4 ovarian
OVCAR-5 ovarian = system: OVCAR-5 ovarian
OVCAR-8 ovarian = system: OVCAR-8 ovarian
PC-3 prostate = system: PC-3 prostate
RPMI-8226 leukemia = system: RPMI-8226 leukemia
RXF 393 renal = system: RXF 393 renal
SF-268 CNS = system: SF-268 CNS
SF-295 CNS = system: SF-295 CNS
SF-539 CNS = system: SF-539 CNS
SK-MEL-2 melanoma = system: SK-MEL-2 melanoma
SK-MEL-28 melanoma = system: SK-MEL-28 melanoma
SK-MEL-5 melanoma = system: SK-MEL-5 melanoma
SK-OV-3 ovarian = system: SK-OV-3 ovarian
SN12C renal = system: SN12C renal
SNB-19 CNS = system: SNB-19 CNS
SNB-75 CNS = system: SNB-75 CNS
SR leukemia = system: SR leukemia
SW-620 colon = system: SW-620 colon
T-47D breast = system: T-47D breast
TK-10 renal = system: TK-10 renal
U251 CNS = system: U251 CNS
UACC-257 melanoma = system: UACC-257 melanoma
UACC-62 melanoma = system: UACC-62 melanoma
UO-31 renal = system: UO-31 renal

Measured: TGI

CC1=NOC2(C1)/C(=N/O)CCC/C2=N\O (stereo not given)
> 100 µM: all assays above
